The subject of one data set is cPLA2. Put plainly: PLA2 activity (14C-AA release) in MAT-Lu cells. In kind it is biochemical, rat. The note with it: 5 mM dithiothreitol.
Another data set deals with growth cone PLA2. Kind of data set: PLA2 assay in growth cone particles (GCPs). It counts as biochemical, rat. The protocol: Growth Cone Particle (GCP) Isolation. GCPs were prepared as described by Pfenninger et al. (1983) and modified by Lohse et al., Dev. Brain Res., 96:38-96 (1996). Briefly, 18-day fetal brains were homogenized in approximately 8 volumes of 0.32 M sucrose containing 1 mM MgCl2, 2 mM TES buffer, pH 7.3, and 3 μM aprotinin. A low-speed supernatant (1,660 g×15 min) was loaded onto a discontinuous sucrose density gradient With steps of 0.83 M and 2.66 M sucrose containing MgCl2 and TES. The gradients were spun to equilibrium at 242,000 g for 40 min in a vertical rotor (Vti50, Beckman). The GCP fraction at the 0.32/0.83 M sucrose interface was collected and used for the experiments described below.
(§1) All assays were run in triplicate.

Data set [1] relates to MAT-Lu cells. Put plainly: Pseudopod morphometry (pseudopod length assay), MAT-Lu cells. It counts as cell-based, rat. The protocol:
(§2) Pseudopod Morphometry. To study the effects of various agents on pseudopods on a short-term basis, we measured pseudopod lengths. Cells plated in 35-mm diameter dishes at low density (1×10^4 per dish) were incubated overnight, tie medium was changed, and the experiments were run four hours later. First, cultures were shifted to serum-free medium, which was replaced one hour later by serum-free medium with or without the various agents (thrombin, AA or HETEs). Care was taken to avoid heat and light inactivation of the eicosanoids. Culture dishes were placed on a Zeiss inverted microscope equipped with a heated stage and viewed with a 16×phase contrast objective lens. Randomly selected fields of the cultures, containing generally about 20 cells each, were recorded, digitized and stored in the computer at the onset of the experiment and at different times thereafter.
(§3) In some cases, individual cells were monitored over different periods of time immediately after introduction of the reagent, either by mixing it into the medium or by applying it locally to one end of the cell. Local application was done with a “puffer” system that expels microliter amounts of the desired solution from a micromanipulator-controlled micropipette tip. Cell morphology was recorded, and the captured images were analyzed with a Power Macintosh computer using NIH Image. Cell process length was measured from the center of the nucleus to the end of the process. Characterization of the frequencies of pseudopod lengths, at a fixed time for each of a sequence of concentrations of reagent, utilized a gamma regression model with an inverse quadratic linear predictor (McCullagh and Nelder, Generalized Linear Models 2d ed., pp. 291-292 (Chapman & Hall, 1989), separately fit to each concentration data set. Although no formal goodness-of-fit tests were carried out, in virtually every case there was good visual representation of the pattern of response (see FIG. 14). Most data, however, are shown as whisker-box plots, where the center point represents the 50%, the ends of the box the […] and 75%, and the “whiskers” the 5% and 95% quantiles (e.g., FIG. 11). Statistical comparisons of pseudopod lengths for different treatments were done by standard non-parametric techniques (Wilcoxon Rank Sum or Kruskal-Wallis Tests), as judged appropriate. Polynomial curve fittings were done by standard least-squares techniques. Statistical analyses and graphing were done with the use of SAS procedures: Reg, Phreg, Nparlway and Plot (SAS institute Inc., Cary, N.C.).

Another data set concerns AT-2 cells. Kind of data set: Pseudopod length / retraction assay, AT-2 cells. It counts as cell-based, rat. Conditions: for pseudopod retraction response of AT-2 cells: AA even at 10^−1M. As to the method:
as §2, §3

The test system of data set [2] is high motility (MAT-Lu, MAT-LyLu and AT-3) Dunning carcinoma cells. Put plainly: Pseudopod length assay, high-motility Dunning carcinoma cells. It counts as cell-based, rat. As to the method:
as §2
In some cases, individual cells were monitored over different periods of time immediately after introduction of the reagent, either by mixing it into the medium or by applying it locally to one end of the cell. […] Cell morphology was recorded, and the captured images were analyzed with a Power Macintosh computer using NIH Image. Cell process length was measured from the center of the nucleus to the end of the process. […]

Data set [3] concerns growth cones in cultures of rat cerebral cortex. Put plainly: Growth cone collapse assay in cortical neuron culture. It counts as cell-based. The note with it: thrombin 100 nM; TRAP (100 mM); 12(S)-HETE 10^−7 M. As to the method:
Neuron Culture. Cerebral cortices were dissected from embryonic day 18 Sprague-Dawley rats, cut into explants of less than 1 mm^3 and cultured on either poly-D-lysine-coated coverglass (Assistent) or poly-D-lvsine-coated tissue culture plastic. After 24 hours in B27 neurobasal medium (NB) supplemented with 10% fetal bovine serum, cultures were switched to serum-free B27/NB. The cultures were incubated at 37° C. in 5% CO2 in air. Sprouting neurons were observed readily on day 1. On day 2 or 3, long neurites were present, and the cultures were used for collapse experiments.
Actin Staining. After experimentation, cultures were fixed by slow infusion of fixative (4% paraformaldehyde in 0.1 M phosphate buffer, pH 7.4) into the culture dishes over 10 min (Pfenninger and Maylié-Pfenninger, J. Cell Biol. 89:53-546 (1981)). Thereafter, the fixative was removed by rinsing three times with phosphate-buffered saline (PBS) containing 1 mM glycine. Cultures were then blocked with PBS/1% bovine serum albumin (BSA) and permeabilized by incubation in 0.02% Triton X-100 for 5 min. After three washes in PBS/BSA, cultures were incubated with Texas-Red-conjugated phalloidin for 30 min. Unbound phalloidin was washed away by two PBS rinses, after which the coverglasses were mounted in Slow-Fade Light on microscope slides. Images were recorded on 35 mm film using a Zeiss Axiophot fluorescence microscope equipped with epiillumination.
Growth Cone Collapse Assay. Prior to repellent factor treatment, some of the day 2-3 explant cultures were pre-incubated (at 37° C.) with inhibitor or vehicle control (dimethylsulfoxide or ethanol) for 30-60 min. Cultures were then challenged with a repellent factor or vehicle control for 1-30 min. In some experiments, live cultures were photographed with a Zeiss IM 35 inverted photo microscope equipped with a stage heater, while in others cultures were fixed (as above) after 7 minutes of repellent factor treatment. Growth cone collapse was assessed quantitatively in aldehyde-fixed cultures by grading the degree of collapse in a large number of randomly selected growth cones.

Another data set concerns protein kinase C (PKC). Put plainly: MARCKS phosphorylation by PKC in isolated GCPs. In kind it is biochemical, rat. Conditions: 30 sec @ 30° C.; 10^−6M or less free Ca^2+. An excerpt: FIG. 7A. Thrombin stimulates MARCKS phosphorylation in a 12-LOX-dependent manner. FIG. 7B. 12(S)-HETE stimulates MARCKS phosphorylation by PKC in isolated GCPs. […] Polypeptides were resolved by SDS-PAGE. MARCKS phosphorylation was quantified by phosphorimaging.

The target in another data set is 12(S)-HETE receptor. The note with it: Liu et al. 1995; Herbertsson and Hammarstrom 1992; cited from earlier work.
For another data set, the target named is PKC γ (Rattus norvegicus, UniProt P63319). The note with it: Naor et al. 1988; cited from earlier work.
Data set [4] has as its system MAT-Lu cells. Kind of data set: Boyden chamber motility assay, MAT-Lu cells. In kind it is cell-based, rat. As to the method: Boyden Chamber Motility Assays. Disposable transwells (Coming Costar, Cambridge, Mass.) of 6.5 mm diameter and 8 μm pore size were coated with 5 μg/ml laminin on both sides. The membranes were washed twice with Hank's balanced salt solution (HBSS) and then pre-incubated with growth medium containing 10% fetal bovine serum. Trypsinized cells (5×10^4) were plated into the upper well. After 1 hour the upper chamber was washed twice with HBSS, filled with serum-free medium and moved to a new lower chamber, also filled with serum-free medium, with or without thrombin and/or 0.75 nM insulin-like growth factor-1 (IGF-1). After incubation for 4 hrs, cells on the membrane were fixed and stained with a Diff-Quick kit (Baxter Scientific Products). Cells on the upper side were scraped off, the membranes were removed, mounted onto microscope slides and analyzed. Each filter was scanned twice at right angles under the light microscope with a 16×phase contrast objective lens. A continuous series of 20 frames for each filter was digitized using a high-resolution CCD camera (Kodak) and stored in a Power Macintosh computer. The two most peripheral pairs of frames from each scan were deleted so that 12 frames were analyzed for each filter. Cells that had crossed the membrane were counted and tabulated. The sum of the cells counted in the twelve frames was an individual data point.

The next data set relates to growth cone PLC. Kind of data set: Phospholipase C assay (DG release) in GCPs. The note with it: IGF-1, low nanomolar range; 10 μM free Ca^2+. It counts as biochemical, rat.
Description: as §1

“Also recorded” adds a separate entry of the source.

Description for cPLA2: MAT-Lu cells were plated at a density of 0.5×10^6 cells per flask (T-75) and grown as detailed above to approximately 25% confluency. On the day before the experiments, the serum level in the medium was dropped to 1%. Cells were fed with fresh 1% serum-medium 4 hrs prior to harvest. For harvesting, cells were rinsed with Ca^++,Mg^++-free HBSS, covered with 2 ml cold Ca^++-free modified Krebs buffer (220 mM sucrose, 50 mM NaCl, 5 mM KCl, 22 mM HEPES, 10 mM glucose. 1.2 mM NaH2PO4 and 1.2 mM MgCl2, pH 7.3), and placed on ice. Cells were scraped off, pelleted for 5 min at 200 rpm and re-suspended in a minimal volume of Krebs buffer. Aliquots were used to determine protein concentration (Biorad Assay) and phopholipase activity. To measure PLA2 activity 10-12 μg of cell protein was incubated with or without thrombin for 10 min on ice, ^14C-AA-labeled phospholipid substrate (7 μM. 40-60 mCi/mmol) was added, and the mixture was transferred to 37° for 20 min. The reaction was stopped by adding cold cliloroform/methanol (1:2 v/v). Lipid extraction followed by thin-layer chromatography (Negre-Aminou et al., J Neurochem 67:2599-2608 (1996)) isolated the reaction product (identified by co-migration with AA standard), which was then scraped off the plates and analyzed in a scintillation spectrometer (Beckman). In some experiments, especially those involving ^14C-AA-phosphatidylinositol as substrate, the diacylglycerol-containing band (identified by co-migration of standard) also was scraped and counted in order to measure phospholipase C (PLC) activity.

For the molecule `O[C@H](CS)[C@H](O)CS` (racemic) [DTT, dithiothreitol], the “effect of reducing agent on measured PLA2 activity” value with cPLA2 is “did not significantly inhibit the measured PLA2 activity”. In addition, the “net activity (pmol/min/mg protein), 50 nM DTT” value in the data set on growth cone PLA2 (Table 3b, GCPs, substrate PI, thrombin 100 nM or control) was found to be 66.0 ± 4.7 pmol/min/mg protein.
For `CCCCC/C=C\C[C@H](O)/C=C/C=C\C/C=C\CCCC(=O)O` [12(S)-HETE, 12(S)-hydroxyeicosatetraenoic acid], the “time until pseudopod shortening nearly complete for most cells” value in the data set on MAT-Lu cells [1] (10^−10M by medium replacement) is listed as “about 15 min”. The “time at which pseudopod lengths reach a minimum” value in the data set with MAT-Lu cells [1] (10^−10 M by medium replacement, 73 pseudopods) is given as “about 17 min”. In addition, the “length reduction for the median pseudopod length versus control” value in the data set with MAT-Lu cells [1] (at 10^−11 and 10^−10 M, 15 min, p<0.0001) was over 45%. Moreover, the “time until pseudopod absorbed completely into the cell” value in the data set on MAT-Lu cells [1] (local application, 10^−10M) is “about 15 min”. Further, the “onset of pseudopod detachment and shortening” value in the data set on MAT-Lu cells [1] (local application, 10^−10M, about 10 μm from cell process) was at most 1 min. Besides, in the data set on AT-2 cells (10^−11M), the “effect on AT-2 pseudopod length” value was “seems to increase pseudopod length”. Also, the “pseudopod retraction response of AT-2 cells” value with AT-2 cells is on record as “retraction was not observed”. Besides, the “concentration at peak of pseudopod retraction” value in [2] (15-min incubation) is recorded as 10^−11 to 10^−10 M. For the same molecule, the “growth cone collapse, agent alone” value in data set [3] was “mimics the effects of thrombin and TRAP; also recorded: does indeed cause growth cone collapse”. In addition, the “concentration at peak of MARCKS and GAP43 phosphorylation (biphasic)” value with protein kinase C (PKC) was “about 10^−10 M”. In addition, at 12(S)-HETE receptor, the dissociation constant Kd (as a rule, a measure of binding affinity in units of concentration) was 1 nM and the “time required for saturation” value was 90 to 120 min.
In the case of `CCCCC/C=C\C/C=C\C/C=C\C/C=C\CCCC(=O)O` [AA, arachidonic acid], the “effect of agent alone on pseudopod length” value in the data set with MAT-Lu cells [1] (typically 15 min exposure) is “caused significant but reversible reduction of pseudopod length; also recorded: mimics the thrombin-induced length reduction; also recorded: causes statistically significant pseudopod shortening”. The “pseudopod retraction response of AT-2 cells” value in the data set with AT-2 cells is recorded as “almost completely insensitive”. In addition, the “pseudopod response to AA” value in data set [2] (all three high-motility cell types) is “responded to AA in the manner described for MAT-Lu cells”. In addition, the “concentration at peak of biphasic PKC γ response” value at PKC γ is 12 µM.
Consider “IGF-1: insulin-like growth factor-1, positive chemotactic factor”, for which the “Mat-Lu cells crossing filter in % of control +/− SEM” value in the data set on MAT-Lu cells [4] (IGF-1 (0.75 nM), 4 hr, thrombin 200 nM, CDC 126 nM) is listed as 184 +/− 15 % of control. Also, in the data set with MAT-Lu cells [4] (IGF-1 in the lower chamber, 4 hr), the “enhancement of MAT-Lu migration across laminin-coated membrane” value was “about 1.8 fold”. Moreover, in the data set with MAT-Lu cells [4] (four-hour assays), the “increase in MAT-Lu migration” value is “about 80%”. Moreover, the “stimulation of AA release from PI” value in the data set with growth cone PLA2 (IGF-1, low nanomolar range, 10 μM free Ca^2+) was “about 1.7 fold”. Besides, in the data set on growth cone PLA2 (Table 3c, GCPs, substrate PI, BDNF 100, IGF-1 0.75, insulin 1, thrombin 200 nM, control 159 ± 6.2), the “net activity (pmol/min/mg protein)” value came to 177 ± 14.5 pmol/min/mg protein. In addition, the “stimulation of DG release in GCPs” value with growth cone PLC was “approximately two-fold”.
